From US9573970B2, “4-{4-[(1E)-4-(2,9-diazaspiro[5.5]undec-2-yl)but-1-en-1-yl]-2-methylbenzyl}-5-(propan-2-yl)-1H-pyrazol-3-yl beta-D glucopyranoside acetate” (Eli Lilly and Company, priority 2013, dated 2017)

Columns and labels:
mouse SGLT1 = biological target: T1, mouse SGLT1 (Mus musculus, UniProt Q8C3K6); assay: Sodium-dependent 14C-AMG uptake in CHO-K1 cells expressing mouse SGLT1; assay type: cell-based; conditions: n = 9
T1 sequence (Q8C3K6 1-665): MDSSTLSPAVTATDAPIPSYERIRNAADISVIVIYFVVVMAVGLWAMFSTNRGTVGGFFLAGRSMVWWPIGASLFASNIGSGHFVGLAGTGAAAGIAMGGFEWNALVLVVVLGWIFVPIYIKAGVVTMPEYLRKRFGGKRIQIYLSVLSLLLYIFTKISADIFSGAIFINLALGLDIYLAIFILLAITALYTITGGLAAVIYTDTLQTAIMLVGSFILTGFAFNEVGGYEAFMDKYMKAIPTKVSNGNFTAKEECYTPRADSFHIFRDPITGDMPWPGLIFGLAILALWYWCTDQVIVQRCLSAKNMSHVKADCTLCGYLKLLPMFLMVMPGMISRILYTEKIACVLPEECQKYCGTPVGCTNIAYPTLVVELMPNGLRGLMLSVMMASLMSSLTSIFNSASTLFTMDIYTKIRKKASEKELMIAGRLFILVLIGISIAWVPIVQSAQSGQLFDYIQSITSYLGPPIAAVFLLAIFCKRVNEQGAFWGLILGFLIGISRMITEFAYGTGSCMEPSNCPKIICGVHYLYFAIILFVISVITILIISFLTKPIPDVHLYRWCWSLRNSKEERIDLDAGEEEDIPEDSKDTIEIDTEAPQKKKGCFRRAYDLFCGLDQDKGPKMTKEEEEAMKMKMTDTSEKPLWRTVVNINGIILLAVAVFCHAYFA
Text: The cDNA encoding human SGLT1 (slc5a1, NM_000343), human SGLT2 (slc5a2, NM_003041) and mouse SGLT1 (slc5a1, NM_019810.4) are purchased from Openbiosystems, Invitrogen and Openbiosystems, respectively. The cDNA is cloned into pcDNA3.1+ for mammalian expression and is stably transfected into Chinese hamster ovary (CHO)-K1 cells using standard mammalian transfection procedures. An SGLT-expressing sub-clone of each over-expressing cell line is selected based on resistance to neomycin (Geneticin, Invitrogen) and activity in the ^14C-α-methyl-D-glucopyranoside (^14C-AMG) uptake assay (see below). Stable SGLT-expressing cells are maintained using standard cell culture techniques.
The SGLT activity is measured as sodium-dependent ^14C-AMG uptake in the above cell lines described as follows. One hundred μL of culture medium containing 30,000 cells are seeded to each well of a 96-well BioCoat poly-D-lysine plate (Becton Dickson) and cultured at 37° C. overnight. The culture medium is aspirated and cells are washed twice with 200 μL of Reaction Buffer (140 mM NaCl, 2 mM KCl, 1 mM CaCl2, MgCl2, and 14 mM N-2-hydroethylpiperrazine-N′-2-ethanesulfonic acid (Hepes), pH 7.5). The excess buffer is tapped out onto paper towels. Thirty-five μL of Reaction Buffer are added to each well. […] After mixing, the scintillation signal in the plate is counted in a MicroBeta (PerkinElmer). […]

[1] = tested on: normal glycemic C57B1/6 mouse; assay: Glucose lowering effects in oral glucose tolerance test (OGTT); assay type: in vivo; conditions: for Glucose, 20 Minute: 20 min after dextrose; for Glucose, 20 Minute / Glucose, 40 Minute / Glucose, 60 Minute / Glucose, 120 Minute / Baseline Adjusted AUC (glucose) / Glucose, 0 Minute: mean ± SE; for Glucose, 40 Minute: 40 min after dextrose; for Glucose, 60 Minute: 60 min after dextrose; for Glucose, 120 Minute: 120 min after dextrose; for Baseline Adjusted AUC (glucose): OGTT; for Glucose, 0 Minute: baseline 3 h after compound, before dextrose 3 g/kg
Method: The test compound is formulated by adding a vehicle of 1% hydroxyethylcellulose, 0.25% Tween® 80 w/antifoam 0.05% to preweighed test compound to make a 1 mg/ml solution. The mixture is probe sonicated for approximately 30 seconds. The resulting solution is used as a stock solution from which the lower concentration dose solutions are prepared by dilution with the vehicle.
Single housed C57B1/6 mice are fasted overnight by removing access to food the late afternoon before test day. The following morning, the mice are weighed and a single fasting blood sample is taken by tail snip to measure glucose by glucometer (Roche AccuChek). Study groups (n=5) are determined based on fasted blood glucose and comprise preferably animals in the range of 80-100 mg/dl glucose.
After grouping, the first mouse is orally gavaged with 10 ml/kg test compound preparation and a timer started. Each subsequent animal is dosed a minute and a half apart. Three hours after the first compound treatment is started, a baseline blood sample is taken for measuring glucose (from the first animal, via tail snip). The animal is then immediately given an oral dose of 50% dextrose (Hospira) at 3 g/kg. Blood samples are taken for glucose, exactly a minute and half apart, by tail vein so that blood is collected in each animal at 20, 40, 60 and 120 minutes after the dextrose dose.

In the case of `Cc1cc(/C=C/CCN2CCCC3(CCNCC3)C2)ccc1Cc1c(O[C@@H]2O[C@H](CO)[C@@H](O)[C@H](O)[C@H]2O)n[nH]c1C(C)C` [Example 1 (free base), 4-{4-[(1E)-4-(2,9-diazaspiro[5.5]undec-2-yl)but-1-en-1-yl]-2-methylbenzyl}-5-(propan-2-yl)-1H-pyrazol-3-yl beta-D-glucopyranoside], the IC50 (mouse SGLT1) is reported as 10 ± 2 nM, the “Glucose, 20 Minute” value ([1]; 0.3 mg/kg oral) is reported as 185 ± 13.7 mg/dL and the “Glucose, 40 Minute” value ([1]; 0.3 mg/kg oral) is reported as 197 ± 14.7 mg/dL. The “Glucose, 60 Minute” value ([1]; 0.3 mg/kg oral) was 164 ± 6.3 mg/dL, the “Glucose, 120 Minute” value ([1]; 0.3 mg/kg oral) was 121 ± 11.8 mg/dL and the “Baseline Adjusted AUC (glucose)” value ([1]; 0.3 mg/kg oral, in mg·min/dL) was 5400 ± 519^. For the same molecule, the “Glucose, 0 Minute” value ([1]; 0.3 mg/kg oral) was 78 ± 4.2 mg/dL, the “Glucose, 20 Minute” value ([1]; 1 mg/kg oral) was 147 ± 8.3 mg/dL and the “Glucose, 40 Minute” value ([1]; 1 mg/kg oral) was 171 ± 11.1 mg/dL. The “Glucose, 60 Minute” value ([1]; 1 mg/kg oral) was 162 ± 5.8 mg/dL, the “Glucose, 120 Minute” value ([1]; 1 mg/kg oral) was 109 ± 7.3 mg/dL and the “Baseline Adjusted AUC (glucose)” value ([1]; 1 mg/kg oral, in mg·min/dL) was 4158 ± 374^. For the same molecule, the “Glucose, 0 Minute” value ([1]; 1 mg/kg oral) was 76 ± 3.3 mg/dL, the “Glucose, 20 Minute” value ([1]; 3 mg/kg oral) was 133 ± 7.1 mg/dL and the “Glucose, 40 Minute” value ([1]; 3 mg/kg oral) was 150 ± 7.5 mg/dL. The “Glucose, 60 Minute” value ([1]; 3 mg/kg oral) was 155 ± 7.2 mg/dL, the “Glucose, 120 Minute” value ([1]; 3 mg/kg oral) was 115 ± 10 mg/dL and the “Baseline Adjusted AUC (glucose)” value ([1]; 3 mg/kg oral) was 3606 ± 421. The “Glucose, 0 Minute” value ([1]; 3 mg/kg oral) was 72 ± 2.6 mg/dL, the “Glucose, 20 Minute” value ([1]; 10 mg/kg oral) was 124 ± 1.2 mg/dL and the “Glucose, 40 Minute” value ([1]; 10 mg/kg oral) was 137 ± 5.4 mg/dL. The “Glucose, 60 Minute” value ([1]; 10 mg/kg oral) was 138 ± 6.1 mg/dL, the “Glucose, 120 Minute” value ([1]; 10 mg/kg oral) was 114 ± 4.3 mg/dL and the “Baseline Adjusted AUC (glucose)” value ([1]; 10 mg/kg oral) was 2693 ± 309. The “Glucose, 0 Minute” value ([1]; 10 mg/kg oral) was 78 ± 5.4 mg/dL, the “Baseline adjusted glucose AUC during an OGTT” value ([1]; 0.3-10 mg/kg oral, in words) was “dose dependent decrease in baseline adjusted glucose area under the curve (AUC)” and the “Glucose excursion following an oral bolus of 50% dextrose” value ([1]; 0.3-10 mg/kg oral, in words) was “dose dependent decrease in the glucose excursion”.
